This is an account of results in patent US9981928B2, “Aryl sulfide derivatives and aryl sulfoxide derivatives as acaricides and insecticides” (BAYER CROPSCIENCE AKTIENGESELLSCHAFT, priority 2013, dated 2018).

The structures appear in SMILES notation. Where two headings read alike, the source gives them in different places.

This data set in a line: log P determination by HPLC on reversed-phase columns (C 18), analogously to OECD Guideline 117. In kind it is physicochemical. To be noted: for chromatographic logP: reversed-phase C18 HPLC column; for logP (HCOOH): LC-MS in the acidic range, pH 2.7, 0.1% aqueous formic acid / acetonitrile; for logP (HCOOH) / logP (neutral): HPLC reversed-phase C 18; for logP (neutral): LC-MS in the neutral range, pH 7.8, 0.001 molar aqueous ammonium hydrogencarbonate / acetonitrile. As for the experimental part:
The log P values were determined analogously to OECD Guideline 117 (EC Directive 92/69/EEC) by HPLC (high-performance liquid chromatography) using reversed-phase columns (C 18), by the following methods:
[a] The LC-MS determination in the acidic range was effected at pH 2.7 with 0.1% aqueous formic acid and acetonitrile (contains 0.1% formic acid) as eluents; linear gradient from 10% acetonitrile to 95% acetonitrile. log P^[a] is also referred to as log P(HCOOH). [b] LC-MS determination in the neutral range was effected at pH 7.8 with 0.001 molar aqueous ammonium hydrogencarbonate solution and acetonitrile as eluents; linear gradient from 10% acetonitrile to 95% acetonitrile. log P^[…] is also referred to as log P(neutral).

Setting [1] is: acidic range, pH 2.7, 0.1% aqueous formic acid and acetonitrile, read-out: log P[a] / log P(HCOOH).
Setting [2] is: neutral range, pH 7.8, 0.001 molar aqueous ammonium hydrogencarbonate and acetonitrile, read-out: log P[b] / log P(neutral).

With `[O-][S+](CC(F)(F)F)c1cc(B(O)O)ccc1Cl` (stereo not drawn) [VIIIb-3, {4-Chloro-3-[(2,2,2-trifluoroethyl)sulfinyl]phenyl}boronic acid], the chromatographic logP came out at 1.74 under setting [1] and 1.68 under setting [2].

For `CCn1c(=O)n(CC)n(-c2ccc(C)c(SCC(F)(F)F)c2)c1=O` [Example 100, 1,4-Diethyl-2-{4-methyl-3-[(2,2,2-trifluoroethyl)sulfanyl]phenyl}-1,2,4-triazolidine-3,5-dione], the chromatographic logP came out at 3.32 under setting [1] and 3.29 under setting [2].

With `Cn1c(OCC2CC2)n[nH]c1=O` [drawing 121 R1=CH2-cyclopropyl R10=CH3, 5-(cyclopropylmethoxy)-4-methyl-2,4-dihydro-3H-1,2,4-triazol-3-one], the chromatographic logP came to 0.84 under setting [1] and 0.88 under setting [2].

Regarding `CCn1[nH]c(=O)n(C(C)C)c1=O` [drawing 120 R1=CH2CH3 R10=CH(CH3)2, 1-ethyl-4-isopropyl-1,2,4-triazolidine-3,5-dione], under setting [1], the chromatographic logP worked out at 0.62.

Consider `CC(C)Cn1[nH]c(=O)n(C2CC2)c1=O` [drawing 120 R1=CH2CH(CH3)2 R10=cyclopropyl, 4-cyclopropyl-1-isobutyl-1,2,4-triazolidine-3,5-dione], for which the chromatographic logP under setting [1] was found to be 0.94.

Consider `Fc1cc(Cl)c(SCC(F)(F)F)cc1Br` [VIIa-2, 1-Bromo-4-chloro-2-fluoro-5-[(2,2,2-trifluoroethyl)sulfanyl]benzene], for which the chromatographic logP was 4.28 under setting [1] and 4.29 under setting [2].

As for `CCC(C)n1c(=O)n(C2CC2)c(=O)n1-c1cc([S+]([O-])CC(F)(F)F)c(C)cc1F` (stereo not drawn) [Example 75], the “logP (HCOOH)” value was found to be 2.73 and the “logP (neutral)” value was 2.68.

On to `Cc1cc(F)c(-n2c(=O)n(C)c(=O)n2-c2cc(F)c(C#N)cc2F)cc1SCC(F)(F)F` [Example 78], for which the “logP (HCOOH)” value turned out to be 3.40 and the “logP (neutral)” value is listed as 3.29.

Regarding `Cn1c(=O)[nH]n(C2CCCC2)c1=O` [drawing 120 R1=cyclopentyl R10=CH3, 1-cyclopentyl-4-methyl-1,2,4-triazolidine-3,5-dione], the chromatographic logP under setting [1] amounted to 0.78.

`FC(F)(F)CSc1cc(Br)ccc1Br` [VIIa-13, 1,4-Dibromo-2-[(2,2,2-trifluoroethyl)sulfanyl]benzene]: the chromatographic logP is, setting by setting: under setting [1], 4.29; under setting [2], 4.25.

As to `CCn1c(=O)n(-c2ccccc2)c(=O)n1-c1cc([S+]([O-])CC(F)(F)F)c(C)cc1F` (stereo not drawn) [Example 88, 1-Ethyl-2-{2-fluoro-4-methyl-5-[(2,2,2-trifluoroethyl)sulfinyl]phenyl}-4-phenyl-1,2,4-triazolidine-3,5-dione], the chromatographic logP reads like this: under setting [1], 2.71; under setting [2], 2.66.

`Cc1cc(F)c(-n2c(=O)n(C3CC3)c(=O)n2C(C)(C)C)cc1SCC(F)(F)F` [Example 144]: the “logP (HCOOH)” value came out at 4.08 and the “logP (neutral)” value is given as 4.07.

As for `Cc1cc(F)c(NC(=O)C(C)(C)O)cc1SCC(F)(F)F` [N-[2-Fluoro-4-methyl-5-(2,2,2-trifluoroethylsulfanyl)phenyl]-2-hydroxy-2-methylpropanamide], the chromatographic logP under setting [1] was 2.81.

As for `Cn1c(OCc2ccccc2Cl)n[nH]c1=O` [drawing 121 R1=2-chlorobenzyl R10=CH3, 5-[(2-chlorobenzyl)oxy]-4-methyl-2,4-dihydro-3H-1,2,4-triazol-3-one], the chromatographic logP was 1.66 under setting [1] and 1.63 under setting [2].

For the compound `CC1(C)OB(c2ccc(Cl)c(SCC(F)(F)F)c2)OC1(C)C` [2-{4-Chloro-3-[(2,2,2-trifluoroethyl)sulfanyl]phenyl}-4,4,5,5-tetramethyl-1,3,2-dioxaborolane], the chromatographic logP is, setting by setting: under setting [1], 5.27; under setting [2], 5.16.

Turning to `CCC(C)n1c(=O)n(C2CC2)c(=O)n1-c1cc(SCC(F)(F)F)c(C)cc1F` (stereo not drawn) [Example 73], the “logP (HCOOH)” value was 3.86 and the “logP (neutral)” value was 3.72.

For `Cn1[nH]c(=O)n(-c2cccc(C(F)(F)F)c2)c1=O` [1-methyl-4-[3-(trifluoromethyl)phenyl]-1,2,4-triazolidine-3,5-dione], the chromatographic logP under setting [1] turned out to be 1.53.

`Cc1cc(F)c(-n2c(=O)n(C3CC3)c(=O)n2C)cc1[S+]([O-])CC(F)(F)F` (single isomer, unassigned) [Example 197]: the “logP (HCOOH)” value is 1.97 and the “logP (neutral)” value turned out to be 1.89.

In the case of `CCn1[nH]c(=O)n(CC)c1=O` [1,4-Diethyl-1,2,4-triazolidine-3,5-dione], the chromatographic logP under setting [1] amounted to 0.14.

On to `OB(O)c1ccc(Cl)c(SCC(F)(F)F)c1` [VIIIa-3, {4-Chloro-3-[(2,2,2-trifluoroethyl)sulfanyl]phenyl}boronic acid], for which the chromatographic logP runs as follows: under setting [1], 2.4; under setting [2], 2.41.

`Cc1cc(F)c(-n2c(=O)n(C)c(=O)n2C2CCCC2)cc1SCC(F)(F)F` [Example 86]: the “logP (HCOOH)” value was 3.75 and the “logP (neutral)” value came to 3.67.

Take `Cc1cc(F)c(-n2c(=O)n(C(C)C)c(=O)n2CC(F)(F)F)cc1SCC(F)(F)F` [Example 146]: the “logP (HCOOH)” value was found to be 3.85 and the “logP (neutral)” value stood at 3.90.

Regarding `Cn1c(=O)n(C2CC2)c(=O)n1-c1cc(SCC(F)(F)F)c(F)cc1F` [Example 71], the “logP (HCOOH)” value amounted to 2.67 and the “logP (neutral)” value was found to be 2.62.

On to `O=c1[nH]n(Cc2ccccc2)c(=O)n1C1CC1` [drawing 120 R1=benzyl R10=cyclopropyl, 1-benzyl-4-cyclopropyl-1,2,4-triazolidine-3,5-dione], for which the chromatographic logP under setting [1] is 1.21.

Consider `Cc1cc(F)c(B2OC(C)(C)C(C)(C)O2)cc1SCC(F)(F)F` [2-{2-Fluoro-4-methyl-5-[(2,2,2-trifluoroethyl)sulfanyl]phenyl}-4,4,5,5-tetramethyl-1,3,2-dioxaborolane], for which the chromatographic logP stood at 4.91 under setting [1] and 4.81 under setting [2].

For the compound `Cc1cc(F)c(-n2c(=S)n(C3CC3)c(=O)n2C)cc1SCC(F)(F)F` [4-cyclopropyl-1-{2-fluoro-4-methyl-5-[(2,2,2-trifluoroethyl)sulfanyl]phenyl}-2-methyl-5-thioxo-1,2,4-triazolidin-3-one], the chromatographic logP was found to be 3.24 under setting [1] and 3.18 under setting [2].

Turning to `Cc1cc(F)c(-n2c(=O)[nH]n(C)c2=O)cc1SCC(F)(F)F` [4-[2-Fluoro-4-methyl-5-[(2,2,2-trifluoroethyl)sulfanyl]phenyl]-1-methyl-1,2,4-triazolidine-3,5-dione], under setting [1], the chromatographic logP came out at 2.02.

As for `CC(C)n1[nH]c(=O)n(C)c1=O` [drawing 120 R1=CH(CH3)2 R10=CH3, 1-isopropyl-4-methyl-1,2,4-triazolidine-3,5-dione], the chromatographic logP under setting [1] worked out at 0.12.

Consider `Cc1cc(C)c([S+]([O-])CC(F)(F)F)cc1B(O)O` (stereo not drawn) [VIIIb-11, {2,4-Dimethyl-5-[(2,2,2-trifluoroethyl)sulfinyl]phenyl}boronic acid], for which the chromatographic logP under setting [1] was determined as 1.61 and the chromatographic logP under setting [2] came to 1.61.

`CCn1c(=O)n(C(C)C)c(=O)n1-c1cc([S+]([O-])CC(F)(F)F)c(C)cc1F` (stereo not drawn) [Example 93]: the “logP (HCOOH)” value is 2.58 and the “logP (neutral)” value is 2.54.
